Assay results as given in paper PMC3705312, “Extracts, Anthocyanins and Procyanidins from Aronia melanocarpa as Radical Scavengers and Enzyme Inhibitors” (Nutrients, 2013).
Where two headings read alike, the source gives them in different places.

Tests used:
[1] = Scavenging of the diphenylpicrylhydrazyl (DPPH) radical; settings: average ± SD; for DPPH % scavenging at 10.4 µg/mL: sample concentration 10.4 µg/mL, 5 min, values marked ^; for DPPH IC50 (concentration to give 50% scavenging): 5 min reaction, A517, values marked #, triplicate
Protocol: Scavenging activity towards the DPPH radical was carried out as previously described [18]. Briefly, to 2.95 mL of a methanolic solution of DPPH (A517 1.0), 50 µL of the test compound (dissolved in DMSO or MeOH) was added. The mixture was stirred, and the decrease in UV absorbance at 517 nm was measured over a period of 5 min. Percent radical scavenging was calculated as 100 × (Astart − Aend)/(Astart), where Astart is the absorbance before addition of the test compound and Aend is the absorbance value after 5 min of reaction time. Values were corrected for absorbance of the test substances.

15-LO from soybeans = molecular target: T1, 15-LO from soybeans (Glycine max, UniProt P08170); experiment: Inhibition of 15-lipoxygenase (15-LO); format: biochemical, soybean; settings: borate buffer pH 9.00, average ± SD, triplicate
T1 construct: purchased Sigma-Aldrich
T1 sequence (P08170 1-839): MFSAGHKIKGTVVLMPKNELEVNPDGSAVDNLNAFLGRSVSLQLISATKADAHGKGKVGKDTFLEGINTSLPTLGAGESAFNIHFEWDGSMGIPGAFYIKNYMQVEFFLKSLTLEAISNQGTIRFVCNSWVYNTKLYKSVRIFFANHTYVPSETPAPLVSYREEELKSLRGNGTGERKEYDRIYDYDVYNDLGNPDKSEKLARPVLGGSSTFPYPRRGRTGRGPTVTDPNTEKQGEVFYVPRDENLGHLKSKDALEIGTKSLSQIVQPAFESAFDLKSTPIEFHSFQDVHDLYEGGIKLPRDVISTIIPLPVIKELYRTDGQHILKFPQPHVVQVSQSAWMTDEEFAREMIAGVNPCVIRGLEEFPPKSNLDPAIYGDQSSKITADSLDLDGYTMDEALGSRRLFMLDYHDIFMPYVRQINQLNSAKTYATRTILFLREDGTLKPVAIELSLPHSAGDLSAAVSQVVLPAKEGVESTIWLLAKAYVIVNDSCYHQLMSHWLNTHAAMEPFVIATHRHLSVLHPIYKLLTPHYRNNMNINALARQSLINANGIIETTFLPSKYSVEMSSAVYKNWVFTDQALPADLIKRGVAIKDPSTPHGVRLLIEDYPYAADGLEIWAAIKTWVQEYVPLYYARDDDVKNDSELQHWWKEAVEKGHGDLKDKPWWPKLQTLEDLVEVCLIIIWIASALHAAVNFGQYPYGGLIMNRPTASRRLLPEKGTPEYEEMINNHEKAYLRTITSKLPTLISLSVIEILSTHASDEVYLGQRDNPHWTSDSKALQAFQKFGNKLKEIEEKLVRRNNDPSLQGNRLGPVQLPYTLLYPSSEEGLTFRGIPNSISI

XO from bovine milk = molecular target: T2, XO from bovine milk (Bos taurus, UniProt P80457); experiment: Inhibition of xanthine oxidase (XO), hypoxanthine as substrate; format: biochemical; settings: average ± SD
T2 construct: purchased Sigma-Aldrich; host or cells: bovine milk
T2 sequence (P80457 whole entry): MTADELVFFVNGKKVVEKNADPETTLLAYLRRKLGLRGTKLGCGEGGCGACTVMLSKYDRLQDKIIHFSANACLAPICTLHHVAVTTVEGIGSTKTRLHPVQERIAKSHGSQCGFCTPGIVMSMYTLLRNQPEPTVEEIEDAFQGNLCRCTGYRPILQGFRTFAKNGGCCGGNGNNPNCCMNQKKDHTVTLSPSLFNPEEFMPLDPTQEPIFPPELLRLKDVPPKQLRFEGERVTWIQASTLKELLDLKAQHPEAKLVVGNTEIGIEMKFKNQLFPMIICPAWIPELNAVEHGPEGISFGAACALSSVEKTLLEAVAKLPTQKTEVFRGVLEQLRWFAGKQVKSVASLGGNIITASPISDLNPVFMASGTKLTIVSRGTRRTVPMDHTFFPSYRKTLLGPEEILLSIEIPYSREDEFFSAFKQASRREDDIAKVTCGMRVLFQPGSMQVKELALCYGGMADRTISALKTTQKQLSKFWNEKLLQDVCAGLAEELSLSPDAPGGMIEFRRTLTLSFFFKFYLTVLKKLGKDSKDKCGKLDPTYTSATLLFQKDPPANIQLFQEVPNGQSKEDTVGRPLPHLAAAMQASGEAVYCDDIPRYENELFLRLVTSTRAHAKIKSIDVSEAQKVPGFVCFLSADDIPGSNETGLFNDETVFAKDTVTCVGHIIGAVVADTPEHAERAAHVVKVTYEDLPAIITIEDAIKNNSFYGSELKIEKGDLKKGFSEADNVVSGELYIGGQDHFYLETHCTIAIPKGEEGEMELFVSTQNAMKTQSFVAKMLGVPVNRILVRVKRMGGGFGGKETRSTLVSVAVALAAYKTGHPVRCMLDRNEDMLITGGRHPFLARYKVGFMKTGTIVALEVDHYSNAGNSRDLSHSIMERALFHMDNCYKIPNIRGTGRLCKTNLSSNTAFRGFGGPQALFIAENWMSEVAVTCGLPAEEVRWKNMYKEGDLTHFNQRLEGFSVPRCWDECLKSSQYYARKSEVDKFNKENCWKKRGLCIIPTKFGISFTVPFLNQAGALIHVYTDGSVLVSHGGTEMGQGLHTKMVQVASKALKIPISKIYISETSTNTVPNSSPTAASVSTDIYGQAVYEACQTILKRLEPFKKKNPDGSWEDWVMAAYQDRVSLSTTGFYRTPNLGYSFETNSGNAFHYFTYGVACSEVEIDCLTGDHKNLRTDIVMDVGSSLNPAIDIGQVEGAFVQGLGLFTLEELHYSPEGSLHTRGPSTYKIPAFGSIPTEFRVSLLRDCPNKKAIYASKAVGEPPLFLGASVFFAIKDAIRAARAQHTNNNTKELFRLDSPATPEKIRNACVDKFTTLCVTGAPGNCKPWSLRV
Protocol: (§1) Procyanidin B2 and B5 reference compounds were obtained from Plant Polyphenols LLC (Boyce, LA, USA). All other reagents were of the highest purity available.
The XO inhibitory activity with hypoxanthine as the substrate was measured spectrophotometrically based on the procedure of Noro et al., with some modifications. The assay mixture consisting of 50 µL of test compound (dissolved in DMSO or MeOH) or (for blanks) DMSO or MeOH alone, 1.85 mL of 50 mM sodium-potassium phosphate buffer (pH = 7.5) and 100 µL of enzyme solution (1.8 U/mL in 50 mM sodium-potassium phosphate buffer, pH = 7.5) was prepared immediately before use. Substrate solution (1.0 mL, 20 µg/mL hypoxanthine in distilled water) was added. The mixture was stirred, and the increase in absorbance at 290 nm was measured over a period of 5 min. Percent enzyme inhibition was calculated as 100 × [(∆A1 − ∆A2)/∆A1], where ∆A1 and ∆A2 are values for the increase in A290 for the sample without test substance and with test substance, respectively.

[2] = molecular target: T3, α-glucosidase from baker's yeast (Saccharomyces cerevisiae, UniProt P53341); experiment: biochemical; settings: 15 min, pH 7.0, average ± SD, triplicate
T3 construct: purchased Sigma-Aldrich
T3 sequence (P53341 whole entry): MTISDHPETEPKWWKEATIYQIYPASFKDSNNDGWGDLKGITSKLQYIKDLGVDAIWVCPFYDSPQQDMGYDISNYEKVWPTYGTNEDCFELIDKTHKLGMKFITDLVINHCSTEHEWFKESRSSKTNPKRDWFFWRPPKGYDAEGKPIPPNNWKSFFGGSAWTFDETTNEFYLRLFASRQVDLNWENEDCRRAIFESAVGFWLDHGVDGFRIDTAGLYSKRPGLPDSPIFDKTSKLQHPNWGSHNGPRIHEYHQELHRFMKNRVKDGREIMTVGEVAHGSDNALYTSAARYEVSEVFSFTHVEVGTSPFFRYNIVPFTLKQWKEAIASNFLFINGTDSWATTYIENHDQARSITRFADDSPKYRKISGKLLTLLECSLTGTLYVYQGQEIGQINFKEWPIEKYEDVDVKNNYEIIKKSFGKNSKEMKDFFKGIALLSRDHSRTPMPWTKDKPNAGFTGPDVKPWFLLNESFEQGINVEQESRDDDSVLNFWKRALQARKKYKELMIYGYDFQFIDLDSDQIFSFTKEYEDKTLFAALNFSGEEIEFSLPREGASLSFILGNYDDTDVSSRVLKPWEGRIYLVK
Protocol: as §1
The α-glucosidase inhibitory activity was determined by a slight modification of the procedure reported by Matsui et al.. The enzyme solution was set at 800 mU/mL of α-glucosidase in a 50 mM phosphate buffer (pH = 7.0) containing 100 mM sodium chloride. For each assay, 20 µL of the test solution in DMSO or MeOH and 80 µL of the enzyme solution were preincubated at 37 °C for 5 min. The reaction was started by adding 1.9 mL of substrate solution (0.7 mM PNP-G in the buffer), and the solution was then incubated at 37 °C for 15 min. After the reaction had been stopped by adding 2.0 mL of a 0.5 M Tris solution, the absorbance of PNP released from PNP-G at 400 nm was measured. Percent enzyme inhibition was calculated as 100 × (AB − AS)/(AB), where AB and AS represent the absorbance of the blank and sample, respectively.

[3] = linoleic acid 134 µM, read-out: 15-Lipoxygenase IC50 (converted)
[4] = 37 °C, read-out: α-Glucosidase IC50 (converted)
[5] = read-out: Xanthine oxidase % inhibition at a concentration of 42 µg/mL, 42 µg/mL

SMILES: OCC1OC(Oc2cc3c(O)cc(O)cc3[o+]c2-c2ccc(O)c(O)c2)C(O)C(O)C1O (centres unmarked) [Compound 1, cyanidin 3-galactoside]
- DPPH % scavenging at 10.4 µg/mL [1]: 39.0 ± 2.9 ^^ %
- IC50 (15-LO from soybeans; [3]): 159 µM
- inhibition at 17 µg/mL (XO from bovine milk; read-out: Xanthine oxidase % inhibition at a concentration of 17 µg/mL, 17 µg/mL): 11.9 ± 4.4%
- IC50 [2, 4]: 3.43 µM

SMILES: OCC1OC(Oc2cc3c(O)cc(O)cc3[o+]c2-c2ccc(O)c(O)c2)C(O)C(O)C1O (centres unmarked) [Compound 2, cyanidin 3-glucoside]
- DPPH % scavenging at 10.4 µg/mL [1]: 37.0 ± 0.9 ^^ %
- IC50 (15-LO from soybeans; [3]): 163 µM
- Xanthine oxidase % inhibition at a concentration of 17 µg/mL (XO from bovine milk): 20.9 ± 3.4%
- IC50 [2, 4]: 1.94 µM

SMILES: Oc1cc(O)c2cc(OC3OCC(O)C(O)C3O)c(-c3ccc(O)c(O)c3)[o+]c2c1 (centres unmarked) [Compound 3, cyanidin 3-arabinoside]
- DPPH % scavenging at 10.4 µg/mL [1]: 40.0 ± 0.4 ^^ %
- IC50 (15-LO from soybeans; [3]): 140 µM
- Xanthine oxidase % inhibition at a concentration of 17 µg/mL (XO from bovine milk): 39.1 ± 2.1%
- IC50 [2, 4]: 0.882 µM

SMILES: Oc1cc(O)c2cc(OC3OCC(O)C(O)C3O)c(-c3ccc(O)c(O)c3)[o+]c2c1 (centres unmarked) [Compound 4, cyanidin 3-xyloside]
- DPPH % scavenging at 10.4 µg/mL [1]: 25.0 ± 5.0 ^^ %
- IC50 (15-LO from soybeans; [3]): > 198 µM
- Xanthine oxidase % inhibition at a concentration of 17 µg/mL (XO from bovine milk): 11.4 ± 2.8%
- IC50 [2, 4]: 13.1 µM

SMILES: Oc1cc(O)c2c(c1)O[C@H](c1ccc(O)c(O)c1)[C@H](O)[C@H]2c1c(O)cc(O)c2c1O[C@H](c1ccc(O)c(O)c1)[C@H](O)C2 [Compound 5, procyanidin B2]
- DPPH IC50 (concentration to give 50% scavenging) [1]: 4.7 ± 0.3 ^# µg/mL
- IC50 (15-LO from soybeans; 15-Lipoxygenase IC50, linoleic acid 134 µM): 113 µM
- inhibition at 42 µg/mL (XO from bovine milk; 42 µg/mL, read-out: Xanthine oxidase % inhibition at a concentration of 42 µg/mL): 12.7 ± 2.8%
- IC50 ([2]; α-Glucosidase IC50, 37 °C): 8.12 µM

SMILES: Oc1cc(O)c2c(c1)O[C@H](c1ccc(O)c(O)c1)[C@H](O)[C@H]2c1c(O)cc2c(c1O)C[C@@H](O)[C@@H](c1ccc(O)c(O)c1)O2 [Compound 6, epi-(4β→6)-epi (B5)]
- DPPH IC50 (concentration to give 50% scavenging) [1]: 5.2 ± 0.1 ^# µg/mL
- IC50 (15-LO from soybeans; [3]): 125 µM
- inhibition at 42 µg/mL (XO from bovine milk; [5]): 6.6 ± 0.7%
- IC50 [2, 4]: 9.51 µM

SMILES: Oc1cc(O)c2c(c1)O[C@H](c1ccc(O)c(O)c1)[C@H](O)[C@H]2c1c(O)cc(O)c2c1O[C@H](c1ccc(O)c(O)c1)[C@H](O)[C@H]2c1c(O)cc(O)c2c1O[C@H](c1ccc(O)c(O)c1)[C@H](O)C2 [Compound 7, epi-(4β→8)-epi-(4β→8)-epi (C1)]
- DPPH IC50 (concentration to give 50% scavenging) [1]: 3.2 ± 0.1 ^# µg/mL
- IC50 (15-LO from soybeans; [3]): 66.5 µM
- inhibition at 42 µg/mL (XO from bovine milk; [5]): 15.5 ± 1.5%
- IC50 ([2]; α-Glucosidase IC50, 37 °C): 4.38 µM

SMILES: O=c1c(O)c(-c2ccc(O)c(O)c2)oc2cc(O)cc(O)c12 [Quercetin, quercetin, reference compound]
- DPPH IC50 (concentration to give 50% scavenging) [1]: 3.0 ± 0.2 ^# µg/mL
